SMILES strings stand for the structures.

For this test, the target named is T1, endogenous wild-type K-Ras protein (Homo sapiens, UniProt P01116).
T1 construct: an endogenous wild-type K-Ras protein and wild-type H-Ras protein in HeLa cells; endogenous in cells; host or cells: HeLa cells
Kind of test: Degradation of endogenous wild-type K-Ras protein in HeLa cells, Western blot analysis. The test is classed as cell-based. To be noted: 48 hours after addition. The protocol:
HeLa cells were seeded in a 24-well plate at a cell density of 8×10^4 cells/well, and then cultured under conditions of 37° C. and 5 vol % CO2 for 16 hours.
After 16 hours from cell seeding, TUS-007 was added to HeLa cells as follows. As a medium, a serum-free medium (37° C.) in which 1 mass % L-glutamine solution (Sigma-Aldrich) was added to D-MEM (high D-glucose, phenol red, sodium pyruvate (Wako Pure Chemical Industries, Ltd.)) was used. It is noted that the L-glutamine solution was added immediately before use. A DMSO solution containing TUS-007 was mixed with the medium so that the concentration of DMSO was 1 vol %, and added to each well at 500 μL/well, and cultured under conditions of 37° C. and 5 vol % CO2. As a control, DMSO was used.
The medium was removed 48 hours after addition of TUS-007, and then PBS was added to wash the cells. […]
After electrophoresis, proteins were transferred to a PVDF membrane (Immobion™-P, Millipore) under conditions of 100 V and 2 hours using a tank-type blotting device and a transfer buffer (25 mM Tris-HCl, 195 mM glycine, 0.01% SDS, 15% methanol). […] Subsequently, the membrane was treated with a chemiluminescence reagent Immobilon™ Western (Millipore), and then chemiluminescence was detected using a lumino image analyzer LAS-3000 (FUJIFILM Corporation). […]
In general terms: In western blotting, separated proteins are transferred to a membrane and probed.

T1 sequence (P01116 1-188 isoform P01116-2): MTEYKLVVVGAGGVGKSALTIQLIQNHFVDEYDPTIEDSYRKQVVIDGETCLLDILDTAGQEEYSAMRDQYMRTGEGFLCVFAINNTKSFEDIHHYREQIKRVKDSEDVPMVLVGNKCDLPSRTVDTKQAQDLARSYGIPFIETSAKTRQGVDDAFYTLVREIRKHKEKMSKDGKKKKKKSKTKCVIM

With `CC[C@@H](C)[C@H](NC(=O)CCCCCCNC(=O)[C@H](CC(C)C)NC(=O)CNC(=O)c1cc(Cl)ccc1Cl)C(=O)Nc1ccc2[nH]c(Cc3c[nH]c4ccccc34)nc2c1` [TUS-007], the “amount of endogenous wild-type K-Ras protein” value was “reduced”.

For the origin of these results see US20190369111A1, “MOLECULAR KINETICS EVALUATION METHOD AND SCREENING METHOD” (Tokyo University of Science Foundation, priority 2016, published 2019).
